Measurements as given in patent US20230135761A1, “TRANSGENIC PLANTS HAVING PROLONGED RIPENING AND REDUCED SUSCEPTIBILITY TO PATHOGENS” (MIGAL GALILEE RESEARCH INSTITUTE LTD, priority 2020, published 2023).

Test system: ICDH1 mRNA
Test: ICDH1 mRNA levels by real time PCR in 1-MCP-treated tomato fruits
Assay type: in vivo, Solanum lycopersicum; cv. Micro Tom
Conditions: 1-MCP-treated vs untreated Micro-Tom tomatoes; 24 hr at 20° C.; stages MG, BRK, EO; FIG. 2
Description: Tomato (Solanum lycopersicum; cv. Micro Tom) plants were grown under natural light in a climate-controlled greenhouse, at 24° C. during the day and 18° C. during the night. 1-MCP was applied using SmartFresh powder (Rohm and Haas, Philadelphia, Pa., USA) containing 0.14% 1-MCP as active ingredient, dissolved in warm water at a concentration of 2,000 nL·mL^−1 1-MCP (stock solution). Fruits were enclosed in a 30 L airtight barrel and the stock solution was injected to a final concentration of […]. Treatment duration was 24 hr at 20° C. For the control, fruits were treated identically excluding 1-MCP application (Gamrasni et al., 2017).
RNA was extracted using NucleoSpin® RNA Plant kit (Macherey-Nagel) according to the manufacturer's protocol. cDNA was prepared from 1 μg total RNA with Verso cDNA Synthesis Kit (ThermoFisher Scientific). The reaction was performed at 42° C. for 30 min. followed by inactivation at 95° C. for 2 min. […] Relative expression ratio was normalized to the S1ASR gene (Solyc04g071610) used as an internal control (Relative RNA levels were determined by the delta-delta Ct method). The significance of results (n=3) was evaluated by independent t-test at *P<0.05 using the SPSS Statistics 20 software (IBM, USA).

CC1=CC1 [1-MCP, 1-methylcyclopropene]
ICDH1 mRNA production / levels: reduced significantly
